Assay results taken from patent publication US8524740B2, “Synthesis and anticancer activity of aryl and heteroaryl-quinolin derivatives” (Tairx, Inc., priority 2010, dated 2013).
Values belong to the molecule of their own block, whether it stands above or below them.

Assays:
[1] = Body weight monitoring in Hep3B xenograft nude mice; assay type: in vivo, Balb/c Nude mice; details: during the course of antitumor evaluation (28 days)
Experimental: (§1) In the xenotraft tumor model of human hepatocellular carcinoma cell lines (Hep-3B, ATCC HB-8064) in male Balb/c Nude mice, the compounds 49 at doses at 7.5, 15 and 30 mg/kg (i.v. or p.o., bid) was administered five days per week for four consecutive weeks by p.o, or i.v. and ceased at Day 28. The compounds 52 at doses at 7.5, 15 and 30 mg/kg (i.v. or p.o., qd) was administered five days per week for four consecutive weeks and ceased at Day 28. The tumor size, body weight was monitored and recorded for 28 days. Human hepatocellular carcinoma cells (HEP-3B ATCC HB-8064) with 2×10^6 cells in 0.1 ml were injected subcutaneously into the right flank of the mice. When the tumor growth reached >100 mm^3 in volume (assumed as day 0), the tumor-bearing animals were assigned into several groups (8 animals in each group) for study.
(§2) The body weight and tumor size were measured and recorded every 7 days during the experimental periods of 28 days. Tumor volume (mm^3) was estimated according to the formula of length×[…]×0.5 in mm^3. Tumor growth inhibition was calculated as T/C (treatment/control) by the following formula: T/C=(Tn−T0)/(Cn−C0)×100% (T0: Tumor volume of treated group in Day 0; Tn: Tumor volume of treated group in Day n; C0: Tumor volume of control group in Day 0; Cn: Tumor volume of control group in Day n).
In the xenograft tumor model of human hepatocellular carcinoma cell lines (Hep-3B, ATCC HB-8064) in male Balb/c Nude mice, compound 147 prepared in 9% (w/v) NaHCO3 solution at doses of 7.5, 15 and 30 mg/kg -i.v.or p.o., qd) was administered five days per week for four consecutive weeks and ceased at Day 28. The tumor size and body weight were monitored and recorded for 28 days. Human hepatocellular carcinoma cells (HEP-3,ATCC HB-8064) with 2 ×10^6 cells in 0.1 mL were injected subcutaneously into the right flank of the mice. […]
The body weight and tumor size were measured and recorded every seven days during the experiment periods of 28 days. […]

[2] = system: Hep-3B human hepatocellular carcinoma xenograft; experiment: In vivo antitumor activity assay, Hep3B xenograft nude mice; parameters: species or system Balb/c Nude mice; details: for Hep3B tumor growth suppression compared with doxorubicin: 7.5 mg/kg/day p.o., doxorubicin 10 mg/kg p.o.; for antitumor activity by i.v. route compared with p.o. route: i.v., 7.5, 15, 30 mg/kg qd; for inhibition of Hep3B tumor growth (dose and time dependence): p.o., 7.5, 15, 30 mg/kg/day
Experimental: The Hep-3B tumor cell line was purchased from American Type Culture Collection (ATCC™HB-8064, human hepatocellular carcinoma cells). The culture medium contained DMEM, 90%; Fetal Bovine Serum, 10% and 1% penicillin-streptomycin. The tumor cells were incubated in an atmosphere containing 5% CO2 at 37° C.
Balb/c Nude mice used in this study were male, 4-6 weeks age, weighing 18-20 g and provided by National Animal Center. All animals were housed in Individually Ventilated Cages Racks (IVC Racks, 36 Mini Isolator system) under Specific Pathogen-Free (SPF) condition throughout the experiment. Each cage (in cm, 26.7 length×20.7 width×14.0 height) was sterilized with autoclave and contained 8 mice, and then the animals were maintained in a hygienic environment under controlled temperature (20-24° C.) and humidity (40%-70%) with 12 hour light/dark cycle. The animals were given free access to sterilized lab chow and sterilized distilled water ad libilum. All aspects of this work, i.e., housing, experimentation and disposal of animals were performed in general accordance with the Guide for the Care and Use of Laboratory Animals (National Academy Press, Washington, D.C., 1996).
as §1, §2
The Hep-3B tumor cell line was purchased from American Type Culture Collection (ATCC HB-8064, human hepatocellular carcinoma cells). A culture medium of 90% DMEM, 10% Fetal Bovine Serum, supplemented with 1% penicillin-streptomycin, was used. The tumor cells were incubated in an atmosphere containing 5% CO2 at 37° C.
Balb/c Nude mice used in this stud were male, 4-6 weeks age, weighing 18-20 g and provided by National Animal Center. All animals were housed in individually ventilated cages racks (IVC Racks, 36 Mini Isolator system) under specific pathogen-free (SPF) conditions throughout the experiment. Each cage (in cm, 26.7 length×20.7 width×14.0 height) was sterilized with autoclave and contained eight mice. The animals were maintained in a hygienic environment under controlled temperature (20-24° C.) and humidity (40% -70%) with a 12 hour light/dark cycle. The animals were given free access to sterilized lab chow and sterilized distilled water ad libitum. All aspects of this work, i.e., housing, experimentation and disposal of animals, were performed in general accordance with the Guide for the Care and Use of Laboratory Animals (National Academy Press, Washington, D.C., 1996). […]

Kb-VIN = experiment: MTT assay, Kb-VIN cells; assay type: cell-based; details: Homo sapiens, KBVIN, Table 5
Experimental: (§3) MTT (3-(4,5-Dimethylthiazol-2-yl)-2,5-diphenyltetrazolium bromide) assays. HL-60, HCT-116, A549, Hep 3B, KB, Kb-VIN and DU145 cells were treated with tested compounds for the indicated periods. After treatment, cells were washed once with PBS and incubated with MTT (Sigma, St. Louis, Mo., USA) for 2 h. The formazan precipitate was dissolved in 150 μL of DMSO, and the absorbance was measured with an ELISA reader at 570 nm.

A549 = experiment: MTT assay, A549 cells; assay type: cell-based; details: Homo sapiens, Table 5
Experimental: as §3

HL-60 = experiment: MTT assay, HL-60 cells; assay type: cell-based; details: Homo sapiens
Experimental: as §3, with “assays.^21,22” for “assays.”, “HCT-116,” for “HCT-116, A549,”, “H460, Detroit 551” for “KB, Kb-VIN”, “HT29/FuR” for “DU145”
(§4) HL-60, Hep 3B, H460, MES-SA, MES-SAID x5 and Detroit 551 cells were treated with vehicle or test compounds for 48 h. The cell growth rate was determined by MTT (3-(4,5-dimethyl-thiazol-2-yl)-2,5-diphenyltetrazoliun bromide) reduction assay.
as §3
as §3, with “HL-60,” for “HL-60, HCT-116, A549,”, “H460, A498, Colo205” for “KB, Kb-VIN”, “Detroit 551” for “DU145”

KB = experiment: MTT assay, KB cells; assay type: cell-based; details: Homo sapiens, Table 5
Experimental: as §3

Hep3B = experiment: MTT assay, Hep 3B cells; assay type: cell-based; details: Homo sapiens
Experimental: as §3, with “assays.^21,22” for “assays.”, “HCT-116,” for “HCT-116, A549,”, “H460, Detroit 551” for “KB, Kb-VIN”, “HT29/FuR” for “DU145”
as §4, §3
as §3, with “HL-60,” for “HL-60, HCT-116, A549,”, “H460, A498, Colo205” for “KB, Kb-VIN”, “Detroit 551” for “DU145”

DU145 = experiment: MTT assay, DU145 cells; assay type: cell-based; details: Homo sapiens, DU-145, Table 5
Experimental: as §3

HCT116 = experiment: MTT assay, HCT-116 cells; assay type: cell-based; details: Homo sapiens
Experimental: as §3, with “assays.^21,22” for “assays.”, “HCT-116,” for “HCT-116, A549,”, “H460, Detroit 551” for “KB, Kb-VIN”, “HT29/FuR” for “DU145”
as §3

[3] = previous report; cited from earlier work
[4] = oral and intravenous administration (CHM-2133-P); cited from earlier work
Detroit 551 = experiment: MTT assay, Detroit 551 normal human cells; assay type: cell-based; details: Detroit 551
Experimental: as §3, with “assays.^21,22” for “assays.”, “HCT-116,” for “HCT-116, A549,”, “H460, Detroit 551” for “KB, Kb-VIN”, “HT29/FuR” for “DU145”
as §4
as §3, with “HL-60,” for “HL-60, HCT-116, A549,”, “H460, A498, Colo205” for “KB, Kb-VIN”, “Detroit 551” for “DU145”

H460 = experiment: MTT assay, H460 cells; assay type: cell-based; details: Homo sapiens, NCI-H460
Experimental: as §3, with “assays.^21,22” for “assays.”, “HCT-116,” for “HCT-116, A549,”, “H460, Detroit 551” for “KB, Kb-VIN”, “HT29/FuR” for “DU145”
as §4
as §3, with “HL-60,” for “HL-60, HCT-116, A549,”, “H460, A498, Colo205” for “KB, Kb-VIN”, “Detroit 551” for “DU145”

MES-SA = experiment: MTT assay, MES-SA cells; assay type: cell-based; details: Homo sapiens, Table 3, B-2 series, 48 hrs
Experimental: as §4

MES-SA/Dx5 = experiment: MTT assay, MES-SA/Dx5 cells; assay type: cell-based, human; details: Table 3, B-2 series; for IC50: Homo sapiens, MES-SA/Dx5, 48 hrs; for Ratio Of SA/Dx5: IC50 MES-SA/Dx5 over IC50 MES-SA
Experimental: as §4

[5] = Homo sapiens, Table 3, B-2 series, 48 hrs

Structure (SMILES): COc1ccc2[nH]c(-c3cccc(F)c3)cc(=O)c2c1OP(=O)(O)O [Compound 52, 2-(3-Fluorophenyl)-6-methoxy-4-oxo-1,4-dihydroquinolin-5-yl dihydrogen phosphate]
body weight changes [1]: no significant body weight changes | Hep3B tumor growth suppression compared with doxorubicin [2]: Significant tumor growth suppression | tumor suppression ([2]; 30 mg/kg/day oral dosing): Near complete tumor suppression | antitumor activity by i.v. route compared with p.o. route [2]: slight better antitumor activity | inhibition of Hep3B tumor growth (dose and time dependence) [2]: dose- and time-dependent inhibition

IC50 (Kb-VIN): 190 nM | IC50 (A549): 130 nM | IC50 (HL-60; Table 5, MTT): 70 nM | IC50 (KB): 130 nM | IC50 (Hep3B; Table 5, MTT): 70 nM | IC50 (DU145): 130 nM | IC50 (HCT116; Table 5): 70 nM
Structure (SMILES): O=c1cc(-c2cccc3ccccc23)[nH]c2cc3c(cc12)OCO3 [Compound 151, 2-(1-Naphthalenyl)-6,7-methylenedioxyquinolin-4-one]

Structure (SMILES): COc1ccc2nc(-c3cccc(F)c3)cc(OP(=O)(O)O)c2c1OP(=O)(O)O [Compound 49, 2-(3-Fluorophenyl)-6-methoxyquinoline-4,5-diyl bis(dihydrogen phosphate)]
body weight changes [1]: no significant body weight changes | antitumor activity compared with doxorubicin ([2]; 7.5 mg/kg i.v. or p.o., bid, doxorubicin 5 mg/kg i.v. qd, 10 mg/kg p.o. qd): exceeded that of doxorubicin | antitumor activity (dose and time dependence) ([2]; 7.5, 15 and 30 mg/kg, i.v. or p.o., bid, five days per week for four weeks): dose- and time-dependent manner

Structure (SMILES): O=P(O)(O)Oc1cc(-c2ccccc2F)nc2cc3c(cc12)OCO3 [CHM-2133-P]
bio-conversion following administration [3]: rapid bio-conversion into its active molecule CHM-2133 | antitumor activity in vivo (earlier work) [4]: excellent antitumor activity

Structure (SMILES): O=c1cc(-c2cccc(OP(=O)(O)O)c2)[nH]c2ccc(N3CCCC3)cc12 [Compound 147, 3-(4-Oxo-6-(pyrrolidin-1-yl)-1,4-dihydroquinolin-2-yl)phenyl dihydrogen phosphate]
body weight changes [1]: no significant body weight changes | Hep3B tumor growth suppression compared with doxorubicin [2]: exceed that of 10 mg/kg doxorubicin | weight of Hep3B tumor relative to control ([2]; 30 mg/kg p.o., % of that of the control): 26.3% | antitumor activity by i.v. route compared with p.o. route [2]: slightly greater activity | inhibition of Hep3B tumor growth (dose and time dependence) [2]: dose- and time-dependent inhibition

IC50 (HL-60; Table 1, 48 h, MTT): 80 nM | IC50 (Hep3B; Table 1, 48 h, MTT): 130 nM | IC50 (HCT116; Table 1, 48 h): 150 nM | IC50 (H460; Table 1, 48 h, MTT): 140 nM
Structure (SMILES): O=c1cc(-c2ccccc2F)[nH]c2cc3c(cc12)OCO3 [CHM-2133, 2-(2-fluorphenyl)-6,7-methylenedioxyquinolin-4-one, reference compound]
IC50 (Detroit 551; Table 1, 48 h, MTT, normal human cell): 8200 nM | antitumor activity in vivo (earlier work) [4]: excellent antitumor activity

melting point: 312 to 313 °C | IC50 (HL-60; Table 3, B-2 series, 48 hrs): 130 nM | IC50 (Hep3B; Table 3, B-2 series, 48 hrs): 300 nM | IC50 (H460; Table 3, B-2 series, 48 hrs): 570 nM
Structure (SMILES): COc1ccccc1C1=Nc2ccc(N3CCCC3)cc2C(=O)C1 [Compound 131, 2-(2-Methoxyphenyl)-6-pyrrolidinoquinolin-4-one]
IC50 (MES-SA): 445 nM | IC50 (MES-SA/Dx5): 451 nM | Ratio Of SA/Dx5 (MES-SA/Dx5): 1.01 | IC50 (Detroit 551; [5]): > 10000 nM

melting point: 364 to 367 °C | IC50 (HL-60; Table 3, B-2 series, 48 hrs): 9 nM | IC50 (Hep3B; Table 3, B-2 series, 48 hrs): 280 nM | IC50 (H460; Table 3, B-2 series, 48 hrs): 400 nM
Structure (SMILES): O=C1CC(c2cccc(O)c2)=Nc2ccc(N3CCCC3)cc21 [Compound 138, 2-(3-Hydroxyphenyl)-6-pyrrolidinoquinolin-4-one]
IC50 (MES-SA): 734 nM | IC50 (MES-SA/Dx5): 320 nM | Ratio Of SA/Dx5 (MES-SA/Dx5): 0.23 | IC50 (Detroit 551; [5]): 1390 nM

IC50 (Kb-VIN): 590 nM | IC50 (A549): 2980 nM | IC50 (HL-60; Table 5, MTT): 30 nM | IC50 (KB): 1050 nM | IC50 (Hep3B; Table 5, MTT): 90 nM | IC50 (DU145): 1870 nM | IC50 (HCT116; Table 5): 50 nM
Structure (SMILES): O=c1cc(-c2coc3ccccc23)[nH]c2cc3c(cc12)OCO3 [Compound 156, 2-(3-Benzo[b]furyl)-6,7-methylenedioxyquinolin-4-one]
